Data as given in PMC11677243, “Target protein identification in live cells and organisms with a non-diffusive proximity tagging system” (eLife, 2024).

Columns and labels:
[1] = molecular target: T1, VPS29 (Homo sapiens, UniProt Q9UBQ0); assay: MST binding to Cy5-labeled VPS29
T1 construct: 6xHis (pET28a, Ni column purification); made in house; host or cells: E. coli BL21(DE3)
Method: (§1) SEPHS2-2xV5, VPS37C-2xV5, VPS29, TRAPPC3, TOM1, and TOM1L2 were labeled using Cy5-NHS ester (A100932, Sangon Biotech, China). Briefly, each target protein was diluted to 10 µM in PBS and underwent buffer exchange with PBS using a Zeba spin desalting column (89882, Thermo Scientific, USA) to remove Tris. The labeling reaction consisted of 80 µl of 10 µM target protein, 10 µl of 1 M NaHCO3 pH 8.3, and 10 µl of 1 mM Cy5-NHS ester in DMSO, and was incubated at 4°C overnight. The next day, unlabeled dyes were removed using Zeba spin desalting columns, and labeling efficiency was assessed by measuring the concentration of Cy5 with a UV-Vis spectrophotometer (SMA5000, Merinton, China). […] Cy5-labeled SEPHS2-2xV5 (5 nM), VPS37C-2xV5 (5 nM), VPS29 (10 nM), TRAPPC3 (10 nM), TOM1 (10 nM), or TOM1L2 (10 nM) was mixed with the corresponding diluted compound in a total volume of 20 µl, and then loaded into Monolith premium capillaries (MO-K025, NanoTemper, Germany). Binding affinity analysis was performed using a NanoTemper Monolith NT.115 instrument (NanoTemper). Kd values were obtained using MO.Affinity Analysis 2.3.0 software (NanoTemper).

[2] = molecular target: T2, TRAPPC3 (Homo sapiens, UniProt O43617); assay: MST binding to Cy5-labeled TRAPPC3; conditions: n = 2
T2 construct: 6xHis (pET28a, Ni column purification); made in house; host or cells: E. coli BL21(DE3)
Method: as §1

[3] = test system: LC3-II; assay: Autophagy inhibition by LC3-II western blot in HEK293T cells; assay type: cell-based, Homo sapiens; conditions: 12 hr
Text: (§2) Cells transfected and/or treated with different compounds were harvested at the end of treatment.

[4] = test system: LC3-II; assay: Autophagy inhibition by LC3-II western blot in A375 cells; assay type: cell-based, Homo sapiens; conditions: 12 hr
Text: as §2

[5] = molecular target: T3, TOM1L2 (Homo sapiens, UniProt Q6ZVM7); assay: MST binding to Cy5-labeled TOM1L2; conditions: n = 2
T3 construct: 6xHis (pET28a, Ni column purification); made in house; host or cells: E. coli BL21(DE3)
T3 sequence (Q6ZVM7 1-507): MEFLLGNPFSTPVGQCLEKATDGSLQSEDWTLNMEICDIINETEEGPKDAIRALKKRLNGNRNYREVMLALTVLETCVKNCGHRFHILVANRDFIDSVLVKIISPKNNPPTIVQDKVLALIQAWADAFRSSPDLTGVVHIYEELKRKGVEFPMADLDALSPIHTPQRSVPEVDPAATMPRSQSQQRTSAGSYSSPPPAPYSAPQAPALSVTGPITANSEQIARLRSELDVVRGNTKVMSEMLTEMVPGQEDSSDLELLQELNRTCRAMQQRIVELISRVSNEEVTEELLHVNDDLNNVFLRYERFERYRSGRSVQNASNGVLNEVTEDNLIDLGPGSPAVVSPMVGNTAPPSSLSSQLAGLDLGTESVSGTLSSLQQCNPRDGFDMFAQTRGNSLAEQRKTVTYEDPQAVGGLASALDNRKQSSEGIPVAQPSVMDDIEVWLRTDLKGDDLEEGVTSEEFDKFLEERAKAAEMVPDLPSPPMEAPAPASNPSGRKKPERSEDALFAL
Method: as §1

[6] = molecular target: T4, VPS37C (Homo sapiens, UniProt A5D8V6); assay: MST binding to Cy5-labeled VPS37C; conditions: purified recombinant VPS37C; n = 2, mean ± s.d.
T4 construct: expressed in transfected cells; host or cells: HEK293T
Method: as §1

[7] = molecular target: T5, VPS37C-V5 (Homo sapiens, UniProt A5D8V6); assay: POST-IT labeling and streptavidin pulldown of VPS37C-V5 in HEK293T cells; assay type: cell-based; conditions: 200 nM DC661-H1 with 2 µM competitor
T5 construct: expressed in transfected cells; host or cells: HEK293T

[8] = molecular target: T6, TOM1 (Homo sapiens, UniProt O60784); assay: MST binding to Cy5-labeled TOM1; conditions: n = 2
T6 construct: 6xHis (pET28a, Ni column purification); made in house; host or cells: E. coli BL21(DE3)
Method: as §1

[9] = molecular target: T4, VPS37C; assay: Cellular thermal shift assay (CETSA) on cell lysates; assay type: binding; conditions: 20 µM compound, 47°C to 59°C
Method: […] cells were cultured on a 100 mm dish and transfected with 10 µg of VPS37C-2xV5 plasmid. Forty-eight hours later, the cells were washed twice with ice-cold PBS, harvested in 1 ml of PBS buffer supplemented with 0.4% NP-40 and 0.5×protease inhibitor cocktail, incubated for 15 min with gently rotation at room temperature, and centrifuged at maximum speed for 15 min at 4°C. The supernatant was transferred to a new 1.5 ml microtube, and protein concentration was determined by a BCA assay. Cell lysates were diluted to a concentration of 2 mg/ml and divided into two groups. The drug group was treated with 20 µM of DC660 or HCQ, while the control group received the same amount of DMSO. After a 20 min incubation at room temperature, cell lysates were gently mixed and aliquoted into PCR tubes with 40 µl each, then subjected to heat treatment for 4 min, ranging from 47°C to 59°C in 2°C increments, and cooled to room temperature on a T100 thermal cycler (Bio-Rad, USA). Subsequently, cell lysates were transferred to 1.5 ml microtubes and centrifuged at maximum speed for 20 min at 4°C to precipitate unstable insoluble proteins. The supernatant was transferred to a new 1.5 ml microtube, and 10 µl of 5×SDS sample buffer was added to each tube. Samples were boiled at 95°C for 5 min and processed for western blot analysis.

[10] = molecular target: T7, Myc-Halo^8KR-PafA (Rhodococcus rhodochrous, UniProt P0A3G2, A155T/A167V/A172T/A224E/C128F/C176G/D78G/E160R/E257R/H272N/K117R/K124R/K175M/K195N/K236R/K263R/K71R/K74R/L47V/L88M/N227D/P291S/S58T/T264A/Y273L/Y87F); assay: Halo-biotin competition assay (western blot, streptavidin-HRP); assay type: binding, Corynebacterium glutamicum; conditions: 2 μM DH1 preincubation, 1 μM Myc-Halo^8KR-PafA, then 5 μM Halo-Biotin
T7 construct: 6xHis (Ni column purification); made in house; host or cells: E. coli BL21(DE3)
Method: Figure 2. Optimized Halo-PafA and Pup substrates efficiently promote pupylation in vitro in a proximity-dependent manner. […] (B) Comparison of proximity-tagging by different Halo-PafA derivatives on in vitro pupylation. (C) Comparison of different Pup substrates on in vitro pupylation with 500 nM DH1. […] (B–D) All reactions were conducted with 1 μM of a Halo-PafA derivative, 10 μM of one of the different Pup substrates, and 0.5 μM of a purified short SRC with a 2xV5 tag, SRC(247-536)-2xV5, at 37°C for 30 min. Pupylation levels of SRC were assessed by immunoblot (IB) using an anti-V5 antibody. Figure 2—source data 1. […] Figure 2—source data 2. […] Figure 2—figure supplement 1. Synthesis of dasatinib-Halo derivative 1 (DH1). Reagents and conditions: (a) HATU, DIPEA, DMF, RT, 2 hr; (b) NaOH, THF, H2O, RT, 2 hr. RT, room temperature. [drawing 4] Figure 2—figure supplement 2. Representative spectra of DH1. (A) ^1H NMR; (B) HRMS. [drawing 5] Figure 2—figure supplement 3. […] (A) Fluorescence polarization (FP) assay using 2 nM of HaloTag Alexa Fluor-488 (Halo-AF488) at 25°C. n = 2. […] (B) Western blot analysis for the Halo-Biotin competition assay. […] Levels of bound Halo-Biotin were assessed by streptavidin-HRP. (C) Quantitative analysis of western blot results shown in (B). n = 5. […] Pupylation levels of SRC were assessed by immunoblot (IB) using an anti-V5 antibody. […]

[11] = molecular target: SRC(247-536)-2xV5 (Homo sapiens, UniProt P12931); conditions: 500 nM DH1, N-terminal Halo^8KR, 37°C, 30 min
[12] = test system: SRC; assay: In cellulo pupylation and pulldown assay of SRC in HEK293T cells; assay type: cell-based, Homo sapiens; conditions: 500 nM DH1
[13] = molecular target: HA-FKBP-EGFP (Homo sapiens, UniProt P42345+P62942); assay: Rapamycin-induced pupylation of FKBP-EGFP by FRB-mKate2-PafA in HEK293T cells; assay type: cell-based; conditions: 100 nM rapamycin
Chain of HA-FKBP-EGFP (P62942 whole entry): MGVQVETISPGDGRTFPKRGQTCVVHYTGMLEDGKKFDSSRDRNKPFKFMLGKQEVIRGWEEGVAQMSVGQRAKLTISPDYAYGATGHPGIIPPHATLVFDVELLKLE
Chain of HA-FKBP-EGFP (P42345 2012-2144 limits assumed): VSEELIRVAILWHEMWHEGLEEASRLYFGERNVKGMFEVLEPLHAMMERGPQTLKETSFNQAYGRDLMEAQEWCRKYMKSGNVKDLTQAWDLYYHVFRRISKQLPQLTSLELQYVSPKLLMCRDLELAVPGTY

T4 sequence (A5D8V6 whole entry): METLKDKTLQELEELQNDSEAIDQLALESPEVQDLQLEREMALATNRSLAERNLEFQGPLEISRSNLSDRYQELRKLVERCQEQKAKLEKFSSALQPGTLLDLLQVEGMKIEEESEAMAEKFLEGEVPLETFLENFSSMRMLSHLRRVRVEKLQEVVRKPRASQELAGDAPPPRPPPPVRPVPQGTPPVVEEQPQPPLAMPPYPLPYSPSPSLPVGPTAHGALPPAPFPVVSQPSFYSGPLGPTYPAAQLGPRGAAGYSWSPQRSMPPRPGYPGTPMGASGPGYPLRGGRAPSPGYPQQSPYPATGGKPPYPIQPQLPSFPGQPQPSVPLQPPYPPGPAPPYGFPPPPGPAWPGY
T5 sequence (A5D8V6 whole entry): as above
T2 sequence (O43617 whole entry): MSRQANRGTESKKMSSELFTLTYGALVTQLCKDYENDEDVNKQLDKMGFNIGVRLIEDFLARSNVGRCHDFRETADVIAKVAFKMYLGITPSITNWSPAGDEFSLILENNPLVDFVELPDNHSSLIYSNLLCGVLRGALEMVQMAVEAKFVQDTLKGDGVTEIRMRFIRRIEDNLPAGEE
T6 sequence (O60784 whole entry): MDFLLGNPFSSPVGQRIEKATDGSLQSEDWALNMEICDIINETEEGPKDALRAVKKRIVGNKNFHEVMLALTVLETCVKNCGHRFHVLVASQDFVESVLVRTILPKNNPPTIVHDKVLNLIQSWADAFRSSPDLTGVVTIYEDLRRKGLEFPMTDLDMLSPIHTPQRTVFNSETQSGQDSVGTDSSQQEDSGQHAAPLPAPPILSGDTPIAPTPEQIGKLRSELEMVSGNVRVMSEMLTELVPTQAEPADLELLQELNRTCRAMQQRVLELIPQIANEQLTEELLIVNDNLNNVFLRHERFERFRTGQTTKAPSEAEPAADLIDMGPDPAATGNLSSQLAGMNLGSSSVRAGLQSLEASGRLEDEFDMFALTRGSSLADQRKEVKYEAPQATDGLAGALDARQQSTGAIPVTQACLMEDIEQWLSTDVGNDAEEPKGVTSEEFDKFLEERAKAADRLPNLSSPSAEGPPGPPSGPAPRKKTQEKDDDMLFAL
Chain of SRC(247-536)-2xV5 (P12931 247-536): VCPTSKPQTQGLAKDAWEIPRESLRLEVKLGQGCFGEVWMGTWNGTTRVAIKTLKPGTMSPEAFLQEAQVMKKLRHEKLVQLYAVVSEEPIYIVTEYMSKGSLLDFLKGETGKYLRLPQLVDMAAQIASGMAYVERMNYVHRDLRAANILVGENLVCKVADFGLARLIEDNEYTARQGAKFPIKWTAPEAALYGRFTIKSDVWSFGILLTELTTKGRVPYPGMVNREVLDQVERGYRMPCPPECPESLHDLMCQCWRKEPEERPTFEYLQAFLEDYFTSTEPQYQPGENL
T7 sequence (P0A3G2 other isoform, or with tags, fused parts or gaps with the stated changes): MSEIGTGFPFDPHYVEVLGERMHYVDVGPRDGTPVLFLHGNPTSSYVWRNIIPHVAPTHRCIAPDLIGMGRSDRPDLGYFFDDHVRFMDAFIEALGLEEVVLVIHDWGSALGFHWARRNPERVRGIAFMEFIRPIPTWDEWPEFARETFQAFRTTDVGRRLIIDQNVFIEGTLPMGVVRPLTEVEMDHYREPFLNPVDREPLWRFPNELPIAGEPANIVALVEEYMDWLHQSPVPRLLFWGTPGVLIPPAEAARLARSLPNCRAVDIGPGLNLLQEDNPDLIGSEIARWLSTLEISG

| Kd ([1]; n = 2, mean ± s.d.) [µM] | binding to TRAPPC3 (MST) [2] | binding to TOM1L2 (MST) [5] | Kd [6] [µM] | VPS37C binding to DC661-H1 under competition [7] | binding to TOM1 (MST) [8] | thermal stability of VPS37C versus DMSO (CETSA) [9] | binding to VPS29 (MST dose-response) ([1]; n = 2) | pupylation of FKBP-EGFP by PafA fused with FRB [13] | Compound | levels of LC3-II band (autophagy inhibition) [3] | levels of LC3-II band (autophagy inhibition) [4] | time for efficient linking to Halo^8KR-PafA [10] [min] | pupylation of purified recombinant short SRC by Halo^8KR-PafA [11] | POST-IT labeling of exogenous and endogenous SRC [12] |
| --- | --- | --- | --- | --- | --- | --- | --- | --- | --- | --- | --- | --- | --- | --- |
| 25 ± 11.7 | appeared to bind well | appeared to bind well | 0.0215 ± 0.0098 | almost completely abolished | appeared to bind well | more stable | – | – | Clc1ccc2c(NCCCCCCNCCCCCCNc3ccnc4cc(Cl)ccc34)ccnc2c1 [DC660, N^1-(7-Chloroquinolin-4-yl)-N^6-(6-((7-chloroquinolin-4-yl)amino)hexyl)hexane-1,6-diamine] | robust LC3-II bands | robust LC3-II bands | – | – | – |
| – | – | – | – | – | – | – | – | – | Cc1nc(Nc2ncc(C(=O)Nc3c(C)cccc3Cl)s2)cc(N2CCN(CCNC(=O)CCCCC(=O)NCCOCCOCCOCCOCCCCCCCl)CC2)n1 [DH1, N1-(2-(4-(6-((5-((2-Chloro-6-methylphenyl)carbamoyl)thiazol-2-yl)amino)-2-methylpyrimidin-4-yl)piperazin-1-yl)ethyl)-N6-(18-chloro-3,6,9,12-tetraoxaoctadecyl)adipamide] | – | – | ≤ 15 | robust pupylation | significant labeling activity |
| – | did not show detectable binding | did not show detectable binding | 16.9 ± 8.7 | almost completely abolished | did not show detectable binding | more stable | no binding | – | CCN(CCO)CCCC(C)Nc1ccnc2cc(Cl)ccc12 (centres unmarked) [HCQ, hydroxychloroquine, reference compound] | – | – | – | – | – |
| – | – | – | – | – | – | – | – | robust pupylation | CO[C@H]1C[C@@H]2CC[C@@H](C)[C@@](O)(O2)C(=O)C(=O)N2CCCC[C@H]2C(=O)O[C@H]([C@H](C)C[C@@H]2CC[C@@H](O)[C@H](OC)C2)CC(=O)[C@H](C)/C=C(\C)[C@@H](O)[C@@H](OC)C(=O)[C@H](C)C[C@H](C)/C=C/C=C/C=C/1C [rapamycin] | – | – | – | – | – |
